How the values were obtained:
SK—N—SH cells = assay: Cell viability (tryphan blue) and cell death of SK-N-SH cells; format: cell-based, human; conditions: 2000 nM, 8 days
Description: (§1) Panel A, SK—N—SH cells (a human neuroblastoma cell line) were grown in DMEM and 5% (v/v) fetal bovine serum. Cells (10^6 cells per ml) were treated (+) or not (−) with 2000 nM SYRAPRO-2000. Cell viability was then determined by counting the cells following tryphan blue staining after 4, 8 and 12 days of incubation. Panel B, Following treatment with or without SYRAPRO-2000 for 8 days, SK—N—SH cells grown on slides were analyzed by phase contrast microscopy (Row A), by fluorescence microscopy following staining with FITC labeled annexin V (apoptotic cell death) (Row B) or propidium iodide (oncolytic cell death) on a on a Zeiss Axioplan 2 imaging universal microscope (Thornwood, N.Y.). Phase contrast images and Green (FITC labeled annexin V) and red (propidium iodide) fluorescence images were obtained. […]
(§2) SK—N—SH cells are grown in DMEM supplemented with 5% (v/v) fetal bovine serum and antibiotics and treated or not with 2 μM SYRAPRO-2000 for 8 days. Following treatment with SYRAPRO-2000, cell viability are then determined by counting the cells following tryphan blue staining. […] Following treatment with SYRAPRO-2000, cells grown on slides by were analyzed by phase contrast microscopy and fluorescence microscopy following staining with FITC labeled annexin V (an indicator of apoptotic cell death) or propidium iodide (an indicator of oncolytic or necrotic cell death). […]

[1] = as above; format: cell-based, human; conditions: human, SK-N-SH cells (neuroblastoma cell line), 2000 nM, 4 days of incubation, read-out: treated cells non viable (tryphan blue staining)
Description: as §1, §2

For `CC[C@H](C)[C@H](NC(=O)[C@H](CCCNC(=N)N)NC(=O)[C@H](CO)NC(=O)[C@H](Cc1c[nH]cn1)NC(=O)[C@H](CCCNC(=N)N)NC(=O)[C@H](CS)NC(=O)CNC(=O)[C@@H](NC(=O)[C@H](CCCNC(=N)N)NC(=O)[C@H](Cc1ccccc1)NC(=O)[C@@H](N)Cc1c[nH]cn1)[C@@H](C)CC)C(=O)NCC(=O)N[C@H](C(=O)N[C@H](C(=O)N[C@@H](CCCNC(=N)N)C(=O)N[C@@H](CCC(N)=O)C(=O)N[C@@H](CCCNC(=N)N)C(=O)N[C@@H](CCCNC(=N)N)C(=O)N[C@@H](C)C(=O)N[C@@H](CCCNC(=N)N)C(=O)N[C@@H](CC(N)=O)C(=O)NCC(=O)N[C@@H](C)C(=O)N[C@@H](CO)C(=O)N[C@@H](CCCNC(=N)N)C(=O)N[C@@H](CO)C(=O)O)[C@@H](C)O)C(C)C` [SYRAPRO-2000], the “mode of cell death (FITC-annexin V and propidium iodide staining)” value (SK—N—SH cells) was “apoptosis and oncolysis” and the cytotoxicity at 4 days, 2 µM [1] was ~50%.

From patent publication US20060252683A1, “Preparation of a peptide compound (SYRAPRO-2000) and its use for the activation of protein phosphatase-2A1 enzyme” (priority 2005, published 2006)
